According to PMC11868579 (Nature Communications, 2024):
Values joined by “and” are separate entries in the source; they are usually repeats but may differ in a detail not shown here. Equal values may be shown once.

Experiments:
4E-BP1 binding to eIF4E = target: T1, 4E-BP1 binding to eIF4E (Homo sapiens, UniProt P06730); test: Co-immunoprecipitation with eIF4E antibody, immunoblot for 4E-BP1, SW620 lysates; assay type: biochemical; settings: 1–100 µM, 30 min
T1 construct: endogenous in cells; host or cells: SW620 cell lysates
Experimental: (§2) Cells were harvested by trypsinisation and washed with PBS before lysis in MSD lysis buffer (150 mM NaCl, 20 mM Tris pH 7.5, 1 mM EDTA, 1 mM EGTA, 1% Triton X-100) containing protease inhibitors (Roche, complete mini tablet, cat# 11836153001) and phosphatase inhibitors (50 mM NaF and 100 mM Na3VO4). Lysate was placed on ice for 30 min and then cleared in a microfuge at 17,000 x g for 10 min at 4 °C. The protein concentration of the cleared lysate was determined by BCA assay (Pierce) and adjusted to 4 mg/ml with lysis buffer. […] 100 μl of lysate and 100 μl of beads were then incubated with shaking overnight at 4 °C. Samples were then washed 3x with 1 ml PBS, resuspended in 100 μl PBS and boiled for 10 min with 1x SDS-PAGE sample buffer containing 10 μl 1 mM DTT.
(§3) After seeding overnight in 6 well plates (Corning, cat#353046), cells were treated with compounds for the indicated times and concentration, harvested and the cell pellet lysed on ice in cell lysis buffer (Cell Signaling, cat#9803), supplemented with 1x Halt^TM protease inhibitor cocktail (Fisher Scientific, cat#78429) and cOmplete^TM protease inhibitor cocktail (Sigma-Aldrich, cat#11836153001) for 1 hr. Protein was quantified using BCA protein kit (Fisher Scientific, cat#23225). […] Quantitative densitometry analysis of protein bands was performed using Image J v1.53 software.

eIF4G binding to eIF4E = target: T2, eIF4G binding to eIF4E (Homo sapiens, UniProt P06730); test: Co-immunoprecipitation with eIF4E antibody, immunoblot for eIF4G, SW620 lysates; assay type: biochemical; settings: 1–100 µM, 30 min
T2 construct: endogenous in cells; host or cells: SW620 cells (lysates)
Experimental: as §2, §3

[1] = system: cap-dependent translation; test: HeLa in vitro translation assay, cap-dependent reporter; assay type: biochemical, human; settings: for fLuc (CAP) luminescence normalized to DMSO control, Average: HeLa lysate IVT, n=3
Experimental: HeLa In vitro translation (IVT) assay kits were purchased from Thermo Fisher(cat#88882). Bicistronic reporter mRNA was prepared from using a CMV/T7-renilla luciferase-IRES(FDMV)-firefly luciferase reporter vector as template DNA (supplied by Oxford Genetics Ltd.) using Message Machine T7 Ultra transcription Kit (Thermo Fisher, cat# AM1345) to generate in vitro transcribed mRNA. DNA template was removed with Turbo DNase from the transcription kit and the mRNA purified using RNeasy columns (Qiagen, cat#74204). RNA concentration was adjusted to 1 µg/µl using a Nanodrop. In vitro translation assays were then set up using a HeLa IVT kit according to the manufacturer’s protocol. The reaction was analysed using Dual Glo luciferase reporter assays (Promega, cat#E2920). Compounds were diluted from 100x DMSO stocks 1:10 in PBS and 2.5 µl transferred to 96 well PCR plates (Starlab, cat#I1402-9700). 22.5 µl IVT reaction mix (1.5 mL HeLa lysate, 60 µl RNAsin (Promega, cat#N2115), 300 µl accessory proteins, 600 µl reaction buffer, 200 µl nuclease free water and 30 µl […] mRNA) was added and incubated for 30 min at 30 °C (PCR alphacycler 4, PCRmax, Stone, Staffordshire, UK). The samples were placed on ice for 10 min, then 10 µl was removed and transferred to a white 96 well assay plate (Corning, cat#3917). […]

[2] = system: H1299 eIF4E-dTAG clones (C2-2, C3-1, N2-1, N3-2) and C3-1 rescue models; test: IncuCyte real-time cell growth of eIF4E-dTAG clones and rescue models; assay type: cell-based, human; settings: for proliferation on co-treatment: 25 μM with dTAG^V-1
Experimental: Real time monitoring of cell growth was performed with the IncuCyte ZOOM live cell imaging system (Essen BioSciences, USA). Cells were seeded in 96 well plates (Corning, cat#353072) and treated on the next day. The resulting phase-contrast images were analysed using IncuCyte ZOOM 2018A software and results were expressed as percentage confluency of cells.

[3] = target: T3, eIF4E major variant (D127) (Homo sapiens, UniProt P06730); assay type: binding; settings: for LE (ligand efficiency) / Kd: major variant D127 (values in parentheses); for Kd: read-out: eIF4E Kd
T3 construct: made in house; host or cells: E. coli (as described for clone 2983)
Experimental: ITC experiments were performed on either a MicroCal VP-ITC or a MicroCal Auto-ITC200 at 25 °C in a buffer comprising 50 mM HEPES, 100 mM NaCl, 1 mM TCEP and 5% DMSO at pH 7.5. Typical titrations on the MicroCal VP-ITC were performed using 17 × 16.4 µL injections with a 250 s spacing between each injection and with a stirring speed of 307 rpm. Typical titrations on the MicroCal Auto-ITC200 were performed using 12 × 3 µL injections with a 150 s spacing between each injection and with a stirring speed of 750 rpm. ITC data analyses were performed with Origin 7.0 software using the “One Set of Sites” model.

[4] = system: cap-dependent and cap-independent (IRES) protein synthesis; test: Bicistronic protein synthesis reporter in H1299 cells; assay type: cell-based, human; settings: 24 hr; for protein synthesis reporter signal (cap-dependent luciferase / IRES luciferase), replicate values: H1299, normalisation not stated
Experimental: H1299 cells were transfected with a biscistronic vector using Lipofectamine 3000 transfection reagent (Fisher Scientific, cat#L3000008) for 24 hr and then treated with compounds for further 24 h. Luminescence was measured after 24 h of compound treatment using the Dual Glo luciferase reporter assays as above.

eIF4E:eIF4G interaction = eIF4E:eIF4G interaction (Homo sapiens, UniProt P06730); test: Electro-chemiluminescent binding assay, eIF4E:eIF4G, HeLa cell lysates; assay type: biochemical; design: endogenous in cells; host or cells: HeLa cells (lysates); settings: for EC50: n = 4, read-out: Inhibition of PPI in HeLa cells: eIF4E-eIF4G interaction; for binding of eIF4G or 4E-BP1 with eIF4E, luminescence normalised to DMSO control, Average: HeLa, n=3, Fig. 4e
Experimental: (§1) This assay uses plates with carbon electrodes and electro-chemiluminescent labels (SULFO-TAGs) that are conjugated to detection antibodies. When an electric current is applied to the plate electrodes the SULFO-TAG labels will emit light that is measured to quantify analytes in the sample. […] The plates were washed with 3 ×150 µl/well MSD wash buffer (cat#R61AA-1; 0.2% Tween-20 in PBS), then blocked with 150 µl/well block buffer (MSD, cat# R93AA) for 1 h. […] The incubated plates were washed 4x in 150 µl in MSD wash buffer and were re-blocked by the addition of 25 μl of blocking buffer containing a 1:500 dilution of the secondary antibody and incubated for 1 hr at RT with rotational shaking. […] Plates were then washed again 4x in 150 µl in MSD wash buffer and 25 μl of a 1:50 dilution of Goat anti-rabbit Sulfo-Tag (MSD, Cat# R32AB-1) in MSD blocking buffer was added and the plates incubated for 1 h at RT with rotational shaking. After a final wash step, 150 μl Read Buffer T4X (MSD, Cat# R92-TC2) was added and the plate read using the MSD QuickPlex SQ 120 plate reader.

[5] = target: T4, endogenous eIF4E:eIF4G interaction (Homo sapiens, UniProt P06730); test: Electro-chemiluminescent eIF4E:eIF4G assay after treatment of intact H1299 cells; assay type: cell-based; settings: 100 µM; for disruption of eIF4E:eIF4G binding in intact cells: 16 hr; for endogenous eIF4E:eIF4G interaction in intact cells, electro-chemiluminescent signal, Average: H1299
T4 construct: endogenous in cells; host or cells: HeLa, SW620 or H1299 cells (lysates; intact H1299 cells in A13)

eIF4E–4E-BP1 interaction = eIF4E–4E-BP1 interaction (Homo sapiens, UniProt P06730); test: Electro-chemiluminescent binding assay, eIF4E:4E-BP1, HeLa cell lysates; assay type: biochemical; design: endogenous in cells; host or cells: HeLa cell lysates; settings: for EC50: read-out: Inhibition of PPI in HeLa cells: eIF4E–4E-BP1 interaction, HeLa cell lysates, values in parentheses
Experimental: as §1

[6] = HeLa lysates, 100 µM, 30 min, single experiments Expt 1, Expt 2

Chain of eIF4E–4E-BP1 interaction (P06730 2-217 limits assumed): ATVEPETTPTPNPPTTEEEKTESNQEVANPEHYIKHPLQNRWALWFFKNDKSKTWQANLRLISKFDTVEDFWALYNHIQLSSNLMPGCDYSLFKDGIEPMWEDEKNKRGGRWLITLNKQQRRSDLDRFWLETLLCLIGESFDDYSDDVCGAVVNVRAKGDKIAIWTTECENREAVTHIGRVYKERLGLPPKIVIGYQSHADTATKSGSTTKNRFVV
Chain of eIF4E:eIF4G interaction (P06730 2-217 limits assumed): as above
T4 sequence (P06730 2-217 limits assumed): as above
T3 sequence (P06730 with tags, fused parts or gaps): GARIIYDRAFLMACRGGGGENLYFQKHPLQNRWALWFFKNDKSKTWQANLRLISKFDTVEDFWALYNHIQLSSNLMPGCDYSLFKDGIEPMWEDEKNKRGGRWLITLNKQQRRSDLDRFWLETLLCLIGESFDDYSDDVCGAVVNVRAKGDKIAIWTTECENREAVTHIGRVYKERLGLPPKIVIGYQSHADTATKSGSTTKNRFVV
T1 sequence (P06730 2-217 limits assumed): as the sequence (P06730 2-217 limits assumed) above
T2 sequence (P06730 2-217 limits assumed): as above

SMILES	effect on 4E-BP1 binding to eIF4E (co-immunoprecipitation) (4E-BP1 binding to eIF4E)	effect on eIF4G binding to eIF4E (co-immunoprecipitation) (eIF4G binding to eIF4E)	fLuc (CAP) luminescence normalized to DMSO control, Average ([1]; 1 μM)	fLuc (CAP) luminescence normalized to DMSO control, Average ([1]; 10 μM)	fLuc (CAP) luminescence normalized to DMSO control, Average ([1]; 100 μM)	LE (ligand efficiency) [3]	Kd ([3]; ITC)	protein synthesis reporter signal (cap-dependent luciferase / IRES luciferase), replicate values ([4]; 10 μM)	protein synthesis reporter signal (cap-dependent luciferase / IRES luciferase), replicate values ([4]; 25 μM)	EC50 (eIF4E:eIF4G interaction; HeLa cell lysates)	binding of eIF4G or 4E-BP1 with eIF4E, luminescence normalised to DMSO control, Average (eIF4E:eIF4G interaction; Conc 0.03 μM)	binding of eIF4G or 4E-BP1 with eIF4E, luminescence normalised to DMSO control, Average (eIF4E:eIF4G interaction; Conc 0.1 μM)	binding of eIF4G or 4E-BP1 with eIF4E, luminescence normalised to DMSO control, Average (eIF4E:eIF4G interaction; Conc 0.3 μM)	binding of eIF4G or 4E-BP1 with eIF4E, luminescence normalised to DMSO control, Average (eIF4E:eIF4G interaction; Conc 1 μM)	binding of eIF4G or 4E-BP1 with eIF4E, luminescence normalised to DMSO control, Average (eIF4E:eIF4G interaction; Conc 3 μM)	binding of eIF4G or 4E-BP1 with eIF4E, luminescence normalised to DMSO control, Average (eIF4E:eIF4G interaction; Conc 10 μM)	binding of eIF4G or 4E-BP1 with eIF4E, luminescence normalised to DMSO control, Average (eIF4E:eIF4G interaction; Conc 30 μM)	binding of eIF4G or 4E-BP1 with eIF4E, luminescence normalised to DMSO control, Average (eIF4E:eIF4G interaction; Conc 100 μM)	binding of eIF4G or 4E-BP1 with eIF4E, luminescence normalised to DMSO control, Average (eIF4E:eIF4G interaction; Conc 300 μM)	binding of eIF4G or 4E-BP1 with eIF4E, luminescence normalised to DMSO control, Average (eIF4E:eIF4G interaction; Conc 1000 μM)	further results
CC[C@H](O[C@H](C)CO)c1ccc(-c2ccccc2F)cc1NCCO [Compound 4]	did not disrupt 4E-BP1 binding to eIF4E	disrupted eIF4G binding to eIF4E	79.4%	29.0%	23.9%	0.38 (kcal/mol)/heavy atom	0.09 µM	0.798 and 0.925 and 1.853 and 1.040 and 0.865 and 0.241	1.174 and 0.369 and 0.133 and 0.780 and 0.760 and 1.031	1.4 µM	97.2%	114.5%	82.4%	79.9%	54.2%	38.7%	33.9%	26.4%	22.8%	28.1%	proliferation on co-treatment ([2]; C3-1 or L85R rescue line): no additional loss of proliferation or MCL1 expression; proliferation on co-treatment ([2]; W73F mutant model): significant combinatorial effect on proliferation; effect on proliferation ([2]; 25 μM, absence of dTAG^V-1, C3-1, W73F and L85R models): no effect on the MCL1 biomarker or proliferation; effects on cell growth, control combination ([2]; compound 4 with neg-dTAG^V-1): no significant effects; sensitisation on co-treatment ([2]; with dTAG^V-1, W73F mutant model): ≈ 50%; enthalpy DH ([3]; ITC, eIF4E D127): -10.2 kcal/mol; entropic penalty -TDS ([3]; ITC, eIF4E D127): 0.6 ± 0.4 kcal/mol; inhibitory activity in dual reporter assay ([4]; H1299 cells): lacked inhibitory activity; eIF4G:eIF4E HeLa, luminescence ratio normalised to DMSO control (eIF4E:eIF4G interaction; [6]): 6.4% and 10%; disruption of eIF4E:eIF4G binding in intact cells [5]: significantly disrupt eIF4E:eIF4G binding; endogenous eIF4E:eIF4G interaction in intact cells, electro-chemiluminescent signal, Average ([5]; 6hr, control 1641896.8): 1444726.0; endogenous eIF4E:eIF4G interaction in intact cells, electro-chemiluminescent signal, Average ([5]; 16hr, control 1700881.1): 549014.1; 4E-BP1:eIF4E HeLa, luminescence ratio normalised to DMSO control (eIF4E–4E-BP1 interaction; [6]): 88% and 92%; EC50 (eIF4E–4E-BP1 interaction): > 100 µM
CC[C@@H](O[C@H](C)CO)c1ccc(-c2ccccc2F)cc1NCCO [Compound 5]	limited effect	limited effect	115.8%	67.5%	84.6%	- (0.3) (kcal/mol)/heavy atom	3 µM	0.991 and 1.031 and 2.154 and 1.191 and 1.096 and 0.294	1.003 and 1.037 and 1.187 and 0.927 and 1.046 and 2.532	> 100 µM	75.0%	70.5%	80.4%	86.3%	81.2%	84.0%	77.0%	75.2%	79.2%	79.6%	effect on cap-dependent translation ([1]; 1, 10, 100 µM): no significant effect; effects on cell growth, control combination ([2]; compound 5 with dTAG^V-1): no significant effects; reduced binding affinity by ITC ([3]; compound 5 versus compound 4): 30 fold; effect on eIF4G binding (eIF4E:eIF4G interaction; HeLa cell lysates): limited effect on eIF4G binding compared to 4; disruption of eIF4E:eIF4G binding in intact cells [5]: some limited evidence of activity; endogenous eIF4E:eIF4G interaction in intact cells, electro-chemiluminescent signal, Average ([5]; 6hr, control 1641896.8): 1584729.4; endogenous eIF4E:eIF4G interaction in intact cells, electro-chemiluminescent signal, Average ([5]; 16hr, control 1700881.1): 1071107.1; EC50 (eIF4E–4E-BP1 interaction): > 100 µM
CC[C@H](C(=O)N1CCCC[C@H]1C(=O)O[C@H](CCc1ccc(OC)c(OC)c1)c1ccccc1OCC(=O)NCCCCCCC(=O)N[C@H](C(=O)N1C[C@H](O)C[C@H]1C(=O)N[C@@H](C)c1ccc(-c2scnc2C)cc1)C(C)(C)C)c1cc(OC)c(OC)c(OC)c1 [dTAG^V-1]																					growth of eIF4E-dTAG clones ([2]; treatment for 6 days, 0.5 or 1 µM): inhibited growth of all 4 clones
